# Test results from patent US6900216B2, “Dihydroimidazo[2,1-b]thiazole and dihydro-5h-thiazolo[3,2-A]pyrimidines as antidepressant agents” (Knoll GmbH, priority 2000, dated 2005).
# Target: T1, 5-HT1A receptors (Rattus norvegicus, UniProt P19327)
# T1 construct: Hippocampal tissue from the brains of male Sprague-Dawley rats; from tissue; host or cells: rat hippocampal membranes
# T1 sequence (P19327 1-422): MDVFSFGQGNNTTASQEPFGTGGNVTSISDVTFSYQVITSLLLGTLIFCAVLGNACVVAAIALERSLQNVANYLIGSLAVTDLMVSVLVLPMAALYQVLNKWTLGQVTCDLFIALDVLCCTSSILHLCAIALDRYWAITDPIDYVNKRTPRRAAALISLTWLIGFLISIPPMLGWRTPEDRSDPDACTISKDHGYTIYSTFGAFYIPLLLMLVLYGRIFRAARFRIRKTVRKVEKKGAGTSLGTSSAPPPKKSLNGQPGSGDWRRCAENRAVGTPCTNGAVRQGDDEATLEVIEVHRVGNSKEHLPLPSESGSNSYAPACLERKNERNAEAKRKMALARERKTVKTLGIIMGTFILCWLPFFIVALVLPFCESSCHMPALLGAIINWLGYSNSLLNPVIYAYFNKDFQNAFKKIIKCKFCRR
# Experiment: 5-HT1A binding: inhibition of [3H]8-OH-DPAT binding to rat hippocampal membranes
# Details: 10^−6 M test compound, single determination, [3H]8-OH-DPAT; read-out: 5-HT1A % displacement at 10^−6 M
# Description: Hippocampal tissue from the brains of male Sprague-Dawley rats (Charles River; weight range 150-250 g) was homogenised in ice-cold 50 mM Tris-HCl buffer (pH 7.7 when measured at 25° C., 1:40 w/v) and centrifuged at 40,000 g at 4° C. for 10 minutes. The pellet was rehomogenised in the same buffer, incubated at 37° C. for 10 minutes and centrifuged at 40,000 g at 4° C. for 10 minutes. The final pellet was resuspended in 50 mM Tris-HCl buffer (pH 7.7) containing 4 mM CaCl2, 0.1% L-ascorbic acid and 10 μM pargyline hydrochloride (equivalent to 6.25 mg wet weight of tissue/ml) and used immediately in the binding assay.
# Membranes (400 μl; equivalent to 2.5 mg wet weight of tissue/tube) were incubated with 50 μl of [^3H]8-hydroxy-2-(dipropylamino)tetralin ([^3H]8-OH-DPAT) at a single concentration of 1 nM and 50 μl of distilled water (total binding) or 50 μl of test compound (at a single concentration of 10^−6 M or at 10 concentrations ranging from 10^−11-10^−3 M) or 50 μl of 5-HT (10 μM, non-specific binding) at 25° C. for 30 minutes. The incubation was terminated by rapid filtration under vacuum through Skatron 11734 filters using a Skatron Cell Harvester. Filters were washed with ice-cold 50 mM Tris-HCl buffer, pH 7.7 (at 25° C., wash setting 9,9,0). The scored filter paper discs were punched out into vials, scintillation fluid added and radioactivity determined by liquid scintillation counting.
# For each of these tests measuring the ability of compounds of Formula I to displace standard ligands from 5-HT1A receptors and 5-hydroxytryptamine (5-HT) and noradrenaline (NA) reuptake sites and muscarinic receptors in vitro, the percentage displacement of specific binding of tritiated ligand by 10^−6 M test compound was calculated in the following way.
# Firstly, specific binding of tritiated ligand in the absence (A) and presence (B) of test compound was determined:
# In the absence of compound: A(dpm)=Total binding (dpm)−Non-specific binding (dpm) In the presence of compound (10^−6 M): B(dpm)=Binding at 10^−6M (dpm)−Non-specific binding (dpm)
# The specific binding of tritiated ligand in the presence (B) of compound was then converted to a percentage of specific binding of tritiated ligand in the absence (A) of compound: % Specific binding at 10^−6 M=B(dpm)/A(dpm)×100
# The percentage displacement of specific binding of tritiated ligand by the test compound (10^−6 M) was then obtained by subtraction of the percentage specific binding in the presence of compound from the percentage specific binding in the absence of compound, which is taken as the maximum binding and so equals 100%:
# % Displacement at 10^−6 M=100−% Specific binding at 10^−6 M.
# In some cases, displacement curves were then produced for compounds which displaced ≧50% of specific binding of the tritiated ligand at 10^−6 M using a range of concentrations of the compound. The Ki was then calculated by simultaneous fitting using equations derived from the Feldman equations by robust non-linear regression to data from three experiments simultaneously (De Lean et al., 1978; Munson and Rodbard, 1980; Feldman, 1992). Munson P J and Rodbard D. Ligand: a versatile computerised approach for characterisation of ligand binding systems. Anal Biochem 1980; 107: 220. Feldman HA. Mathematical theory of complex ligand binding systems at equilibrium: some methods for parameter fitting. Anal Biochem 1992: 48, 317. De Lean A, Munson P J and Rodbard D. Simultaneous analysis of families of sigmoidal curves: application to bioassay, radioligand assay, and physiological dose-response curves. Am J Physiol 1978: 235 (2), E97-E102.
# The results obtained in the above tests for 5-HT1A binding and 5-HT and NA uptake and muscarinic binding for the final products of Examples 1-39 hereinafter are given in Table 1 below. Kis are in nM. % Figures are for % displacement at 10^−6 M for a single determination.
row,inhibition at 1 µM [%],SMILES
1,66,"CSC1=C(c2ccc3sccc3c2)N2CCN=C2S1 [Example 30, 3-(benzo[b]thiophen-5-yl)-2-(methylthio)-5,6-dihydroimidazo[2,1-b]thiazole]"

# Same assay, conditions: [3H]8-OH-DPAT 1 nM, rat hippocampal membranes; fit to data from three experiments
row,Ki [nM],SMILES
1,15,"CC1=C(c2cccc3sccc23)N2CCN=C2S1.Cl [Example 9, 3-(benzo[b]thiophen-4-yl)-2-methyl-5,6-dihydroimidazo[2,1-b]thiazole hydrochloride]"
2,45,"Br.c1cc(C2=C(C3CC3)SC3=NCCN32)c2ccsc2c1 [Example 34, 3-(benzo[b]thiophen-4-yl)-2-cyclopropyl-5,6-dihydroimidazo[2,1-b]thiazole hydrobromide]"
3,14.3,"Br.CC1=C(c2cccc3sccc23)N2CCN=C2S1 [Example 8, 3-(benzo[b]thiophen-4-yl)-2-methyl-5,6-dihydroimidazo[2,1-b]thiazole hydrobromide]"
4,134,"CSC1=C(c2cc3ccccc3s2)N2CCN=C2S1 [Example 19, 3-(benzo[b]thiophen-2-yl)-2-(methylthio)-5,6-dihydroimidazo[2,1-b]thiazole]"
5,38.5,"OCC1=C(c2ccc3sccc3c2)N2CCN=C2S1 [Example 28, [3-(benzo[b]thiophen-5-yl)-5,6-dihydroimidazo[2,1-b]-thiazol-2-yl]methanol]"

row,SMILES,Ki [nM]
1,"CC(C)C1=C(c2cccc3sccc23)N2CCN=C2S1.O=C(O)/C=C/C(=O)O [Example 35, 3-(benzo[b]thiophen-4-yl)-2-(1-methylethyl)-5,6-dihydroimidazo[2,1-b]thiazole fumarate]",151

# Same assay, conditions: read-out: 5-HT1A % displacement at 10^−6 M
row,SMILES,inhibition at 1 µM [%]
1,"Br.CC1=C(c2cc3c(Cl)cccc3s2)N2CCCN=C2S1 [Example 17, 3-(4-chlorobenzo[b]thiophen-2-yl)-2-methyl-6,7-dihydro-5H-thiazolo[3,2-a]pyrimidine hydrobromide]",82
2,"Br.CC1=C(c2cc3c(C)cccc3s2)N2CCN=C2S1 [Example 16, 2-methyl-3-(4-methylbenzo[b]thiophen-2-yl)-5,6-dihydroimidazo[2,1-b]thiazole hydrobromide]",97
3,"Br.CCC1=C(c2cc3c(Cl)cccc3s2)N2CCN=C2S1 [Example 18, 3-(4-chlorobenzo[b]thiophen-2-yl)-2-ethyl-5,6-dihydroimidazo[2,1-b]thiazole hydrobromide]",96
